Reference: US12673945B2, “3-((8-((1H-pyrazol-4-yl)amino)imidazo[1,2-a]pyridin-3-yl)ethinyl)-n-phenylbenzamide derivative, method for preparing same, and pharmaceutical composition containing same as active ingredient for prevention or treatment of cancer” (DAEGU-GYEONGBUK MEDICAL INNOVATION FOUNDATION, priority 2020, dated 2026)

Assays:
Experiment in all cases: scanMAX Kinase panel (DiscoverX)
Type in all cases: binding
[1] = molecular target: T1, ABL1(Q252H)-nonphosphorylated (Homo sapiens, UniProt P00519, Q252H); settings: read-out: % Cont @ 1 uM
T1 construct: purchased DiscoverX
Experimental: (§1) Among the example compounds of the present invention, the enzyme (kinase) selectivity of the selected compounds of Examples 1 and 4 was measured by requesting DiscoverX. At this time, the experiment was performed using a panel for scanMAX™ Kinase. The concentration of the drug treated to the enzyme was 1 μM in DMSO, and the percentage control (% control) was determined by the method shown in Equation 1 below. (Example Compound−Positive Control)/(Negative Control−Positive control)×100 [Equation 1]

FLT3(ITD) = test system: FLT3(ITD)
Experimental: as §1

BRAF = molecular target: T2, BRAF (Homo sapiens, UniProt P15056); settings: read-out: % Cont @ 1 uM
T2 construct: purchased DiscoverX scanMAX Kinase panel
T2 sequence (P15056 whole entry): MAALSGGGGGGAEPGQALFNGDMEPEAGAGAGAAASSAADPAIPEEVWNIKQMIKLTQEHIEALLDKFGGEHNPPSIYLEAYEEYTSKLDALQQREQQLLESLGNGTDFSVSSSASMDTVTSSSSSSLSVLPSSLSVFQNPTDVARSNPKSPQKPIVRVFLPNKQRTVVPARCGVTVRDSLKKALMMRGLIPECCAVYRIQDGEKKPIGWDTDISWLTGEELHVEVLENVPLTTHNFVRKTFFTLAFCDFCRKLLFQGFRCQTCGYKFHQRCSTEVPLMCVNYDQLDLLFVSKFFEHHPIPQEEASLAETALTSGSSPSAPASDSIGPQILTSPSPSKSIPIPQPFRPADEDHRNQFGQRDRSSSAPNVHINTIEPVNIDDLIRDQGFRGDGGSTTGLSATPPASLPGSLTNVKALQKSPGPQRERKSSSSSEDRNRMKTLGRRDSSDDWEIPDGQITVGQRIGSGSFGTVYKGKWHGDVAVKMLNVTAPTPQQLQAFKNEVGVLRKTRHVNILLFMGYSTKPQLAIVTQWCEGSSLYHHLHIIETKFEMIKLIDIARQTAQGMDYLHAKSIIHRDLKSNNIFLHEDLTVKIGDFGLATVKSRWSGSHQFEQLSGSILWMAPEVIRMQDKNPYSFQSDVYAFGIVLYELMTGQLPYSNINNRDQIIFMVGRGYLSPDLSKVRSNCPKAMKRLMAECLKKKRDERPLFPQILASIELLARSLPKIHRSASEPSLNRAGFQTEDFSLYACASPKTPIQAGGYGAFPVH
Experimental: as §1

TEC = molecular target: T3, TEC (Homo sapiens, UniProt P42680); settings: read-out: % Cont @ 1 uM
T3 construct: purchased DiscoverX scanMAX Kinase panel
Experimental: as §1

FES = molecular target: T4, FES (Homo sapiens, UniProt P07332); settings: read-out: % Cont @ 1 uM
T4 construct: purchased DiscoverX scanMAX Kinase panel
Experimental: as §1

TRKC = molecular target: T5, TRKC (Homo sapiens, UniProt Q16288); settings: read-out: % Cont @ 1 uM
T5 construct: purchased DiscoverX scanMAX Kinase panel
Experimental: as §1

FGR = molecular target: T6, FGR (Homo sapiens, UniProt P09769); settings: read-out: % Cont @ 1 uM
T6 construct: purchased DiscoverX scanMAX Kinase panel
Experimental: as §1

PDGFRA = molecular target: T7, PDGFRA (Homo sapiens, UniProt P16234); settings: read-out: % Cont @ 1 uM
T7 construct: purchased DiscoverX scanMAX Kinase panel
Experimental: as §1

FLT3(D835V) = molecular target: T8, FLT3(D835V) (Homo sapiens, UniProt P36888, D835V); settings: read-out: % Cont @ 1 uM
T8 construct: purchased DiscoverX scanMAX Kinase panel
Experimental: as §1

MST3 = molecular target: T9, MST3 (Homo sapiens, UniProt Q9Y6E0)
T9 construct: purchased DiscoverX scanMAX Kinase panel
Experimental: as §1

EGFR(L861Q) = molecular target: T10, EGFR(L861Q) (Homo sapiens, UniProt P00533, L861Q)
T10 construct: purchased DiscoverX scanMAX Kinase panel
Experimental: as §1

NEK1 = molecular target: T11, NEK1 (Homo sapiens, UniProt Q96PY6); settings: read-out: % Cont @ 1 uM
T11 construct: purchased DiscoverX scanMAX Kinase panel
Experimental: as §1

VEGFR2 = molecular target: T12, VEGFR2 (Homo sapiens, UniProt P35968); settings: read-out: % Cont @ 1 uM
T12 construct: purchased DiscoverX scanMAX Kinase panel
Experimental: as §1

CDC2L2 = molecular target: T13, CDC2L2 (Homo sapiens, UniProt Q9UQ88); settings: read-out: % Cont @ 1 uM
T13 construct: purchased DiscoverX scanMAX Kinase panel
Experimental: as §1

TAK1 = molecular target: T14, TAK1 (Homo sapiens, UniProt O43318); settings: read-out: % Cont @ 1 uM
T14 construct: purchased DiscoverX scanMAX Kinase panel
T14 sequence (O43318 whole entry): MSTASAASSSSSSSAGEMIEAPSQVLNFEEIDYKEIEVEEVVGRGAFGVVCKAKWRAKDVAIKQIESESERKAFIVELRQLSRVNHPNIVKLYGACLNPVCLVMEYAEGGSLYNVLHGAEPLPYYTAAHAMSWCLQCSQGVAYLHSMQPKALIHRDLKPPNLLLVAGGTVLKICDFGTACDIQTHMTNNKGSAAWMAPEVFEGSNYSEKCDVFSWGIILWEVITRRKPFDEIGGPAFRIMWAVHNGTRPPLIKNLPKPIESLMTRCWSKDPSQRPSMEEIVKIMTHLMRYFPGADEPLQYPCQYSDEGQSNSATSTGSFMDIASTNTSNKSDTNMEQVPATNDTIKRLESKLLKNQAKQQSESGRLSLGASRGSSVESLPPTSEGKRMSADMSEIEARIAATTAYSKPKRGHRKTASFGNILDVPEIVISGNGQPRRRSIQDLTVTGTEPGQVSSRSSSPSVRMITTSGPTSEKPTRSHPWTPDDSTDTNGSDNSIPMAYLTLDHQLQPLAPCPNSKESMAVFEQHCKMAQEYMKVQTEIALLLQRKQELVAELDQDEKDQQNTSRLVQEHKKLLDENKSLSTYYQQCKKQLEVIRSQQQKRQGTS
Experimental: as §1

ABL1-nonphosphorylated = molecular target: T15, ABL1-nonphosphorylated (Homo sapiens, UniProt P00519); settings: read-out: % Cont @ 1 uM
T15 construct: purchased DiscoverX scanMAX Kinase panel
Experimental: as §1

FER = molecular target: T16, FER (Homo sapiens, UniProt P16591); settings: read-out: % Cont @ 1 uM
T16 construct: purchased DiscoverX scanMAX Kinase panel
Experimental: as §1

MLK3 = molecular target: T17, MLK3 (Homo sapiens, UniProt Q16584)
T17 construct: purchased DiscoverX scanMAX Kinase panel
Experimental: as §1

[2] = molecular target: T18, ABL1(Q252H)-phosphorylated (Homo sapiens, UniProt P00519, Q252H); settings: read-out: % Cont @ 1 uM
T18 construct: purchased DiscoverX
Experimental: as §1

ABL1-phosphorylated = molecular target: T19, ABL1-phosphorylated (Homo sapiens, UniProt P00519); settings: read-out: % Cont @ 1 uM
T19 construct: purchased DiscoverX scanMAX Kinase panel
Experimental: as §1

TAOK2 = molecular target: T20, TAOK2 (Homo sapiens, UniProt Q9UL54); settings: read-out: % Cont @ 1 uM
T20 construct: purchased DiscoverX scanMAX Kinase panel
Experimental: as §1

STK36 = molecular target: T21, STK36 (Homo sapiens, UniProt Q9NRP7); settings: read-out: % Cont @ 1 uM
T21 construct: purchased DiscoverX scanMAX Kinase panel
Experimental: as §1

PAK3 = molecular target: T22, PAK3 (Homo sapiens, UniProt O75914); settings: read-out: % Cont @ 1 uM
T22 construct: purchased DiscoverX scanMAX Kinase panel
Experimental: as §1

YES = molecular target: T23, YES (Homo sapiens, UniProt P07947); settings: read-out: % Cont @ 1 uM
T23 construct: purchased DiscoverX scanMAX Kinase panel
Experimental: as §1

RET(M918T) = molecular target: T24, RET(M918T) (Homo sapiens, UniProt P07949, M918T); settings: read-out: % Cont @ 1 uM
T24 construct: purchased DiscoverX scanMAX Kinase panel
T24 sequence (P07949 29-1114 M918T): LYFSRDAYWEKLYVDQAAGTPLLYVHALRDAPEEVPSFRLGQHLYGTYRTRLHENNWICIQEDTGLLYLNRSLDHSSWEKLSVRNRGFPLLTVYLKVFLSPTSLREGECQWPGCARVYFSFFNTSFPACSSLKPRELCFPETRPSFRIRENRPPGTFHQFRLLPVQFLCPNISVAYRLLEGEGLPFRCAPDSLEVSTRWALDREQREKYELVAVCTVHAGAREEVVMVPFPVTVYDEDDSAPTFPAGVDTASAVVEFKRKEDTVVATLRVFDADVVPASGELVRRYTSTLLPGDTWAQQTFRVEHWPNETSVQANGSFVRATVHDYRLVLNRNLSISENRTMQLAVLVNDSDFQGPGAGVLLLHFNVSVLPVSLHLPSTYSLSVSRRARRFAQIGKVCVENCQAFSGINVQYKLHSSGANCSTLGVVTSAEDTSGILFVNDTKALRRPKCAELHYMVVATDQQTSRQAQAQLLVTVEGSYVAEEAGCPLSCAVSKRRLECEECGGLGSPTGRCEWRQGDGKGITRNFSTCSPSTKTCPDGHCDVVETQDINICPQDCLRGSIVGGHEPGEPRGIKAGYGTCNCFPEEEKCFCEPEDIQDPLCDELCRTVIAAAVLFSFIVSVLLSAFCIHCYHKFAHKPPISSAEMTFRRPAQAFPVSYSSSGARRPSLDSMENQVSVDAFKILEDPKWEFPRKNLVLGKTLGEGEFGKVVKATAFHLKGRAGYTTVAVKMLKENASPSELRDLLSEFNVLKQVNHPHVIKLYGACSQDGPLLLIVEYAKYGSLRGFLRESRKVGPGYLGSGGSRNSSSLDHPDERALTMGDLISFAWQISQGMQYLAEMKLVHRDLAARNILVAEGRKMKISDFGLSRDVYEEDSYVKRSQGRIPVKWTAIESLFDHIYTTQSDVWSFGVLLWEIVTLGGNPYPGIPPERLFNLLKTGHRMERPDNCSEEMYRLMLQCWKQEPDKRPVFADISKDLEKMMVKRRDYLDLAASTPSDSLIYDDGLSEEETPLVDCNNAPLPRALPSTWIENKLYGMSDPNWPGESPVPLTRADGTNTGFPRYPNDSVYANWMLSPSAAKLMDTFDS
Experimental: as §1

MAP3K3 = molecular target: T25, MAP3K3 (Homo sapiens, UniProt Q99759); settings: read-out: % Cont @ 1 uM
T25 construct: purchased DiscoverX scanMAX Kinase panel
Experimental: as §1

IKK-alpha = molecular target: T26, IKK-alpha (Homo sapiens, UniProt O15111); settings: read-out: % Cont @ 1 uM
T26 construct: purchased DiscoverX scanMAX Kinase panel
Experimental: as §1

TIE2 = molecular target: T27, TIE2 (Homo sapiens, UniProt Q02763); settings: read-out: % Cont @ 1 uM
T27 construct: purchased DiscoverX scanMAX Kinase panel
T27 sequence (Q02763 23-1124): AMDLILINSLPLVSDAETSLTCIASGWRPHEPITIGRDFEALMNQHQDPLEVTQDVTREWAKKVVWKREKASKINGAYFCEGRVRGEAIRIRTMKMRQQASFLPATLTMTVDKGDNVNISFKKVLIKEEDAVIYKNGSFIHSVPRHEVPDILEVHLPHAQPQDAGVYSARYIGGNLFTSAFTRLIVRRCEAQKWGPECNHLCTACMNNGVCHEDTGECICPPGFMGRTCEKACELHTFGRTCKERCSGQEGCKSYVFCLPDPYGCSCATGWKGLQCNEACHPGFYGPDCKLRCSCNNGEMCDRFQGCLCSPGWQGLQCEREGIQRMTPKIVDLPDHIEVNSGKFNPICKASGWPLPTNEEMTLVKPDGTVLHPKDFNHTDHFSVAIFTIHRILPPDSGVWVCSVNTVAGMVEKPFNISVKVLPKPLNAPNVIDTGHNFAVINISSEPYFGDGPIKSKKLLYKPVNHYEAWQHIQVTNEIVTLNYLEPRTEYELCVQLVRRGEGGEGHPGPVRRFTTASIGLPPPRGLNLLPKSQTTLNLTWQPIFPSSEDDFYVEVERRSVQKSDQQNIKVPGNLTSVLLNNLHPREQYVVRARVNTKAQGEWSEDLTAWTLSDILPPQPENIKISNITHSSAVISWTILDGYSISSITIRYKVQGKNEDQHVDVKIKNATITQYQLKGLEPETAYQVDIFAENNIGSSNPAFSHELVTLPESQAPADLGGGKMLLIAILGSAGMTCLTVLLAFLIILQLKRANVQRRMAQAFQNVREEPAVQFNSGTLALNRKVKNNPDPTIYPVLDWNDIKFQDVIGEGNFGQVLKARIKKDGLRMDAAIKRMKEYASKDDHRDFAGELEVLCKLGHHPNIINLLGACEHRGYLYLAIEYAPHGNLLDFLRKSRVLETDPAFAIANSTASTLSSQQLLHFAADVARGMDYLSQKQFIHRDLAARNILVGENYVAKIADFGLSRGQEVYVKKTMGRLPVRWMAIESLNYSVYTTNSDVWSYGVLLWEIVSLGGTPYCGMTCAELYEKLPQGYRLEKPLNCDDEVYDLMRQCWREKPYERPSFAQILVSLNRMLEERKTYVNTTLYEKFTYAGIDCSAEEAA
Experimental: as §1

TNIK = molecular target: T28, TNIK (Homo sapiens, UniProt Q9UKE5); settings: read-out: % Cont @ 1 uM
T28 construct: purchased DiscoverX scanMAX Kinase panel
Experimental: as §1

BLK = molecular target: T29, BLK (Homo sapiens, UniProt P51451); settings: read-out: % Cont @ 1 uM
T29 construct: purchased DiscoverX scanMAX Kinase panel
Experimental: as §1

MAP3K2 = molecular target: T30, MAP3K2 (Homo sapiens, UniProt Q9Y2U5); settings: read-out: % Cont @ 1 uM
T30 construct: purchased DiscoverX scanMAX Kinase panel
Experimental: as §1

EPHB1 = molecular target: T31, EPHB1 (Homo sapiens, UniProt P54762); settings: read-out: % Cont @ 1 uM
T31 construct: purchased DiscoverX scanMAX Kinase panel
Experimental: as §1

FGFR4 = molecular target: T32, FGFR4 (Homo sapiens, UniProt P22455); settings: read-out: % Cont @ 1 uM
T32 construct: purchased DiscoverX scanMAX Kinase panel
Experimental: as §1

MERTK = molecular target: T33, MERTK (Homo sapiens, UniProt Q12866); settings: read-out: % Cont @ 1 uM
T33 construct: purchased DiscoverX scanMAX Kinase panel
Experimental: as §1

DLK = molecular target: T34, DLK (Homo sapiens, UniProt Q12852)
T34 construct: purchased DiscoverX scanMAX Kinase panel
Experimental: as §1

ERBB2 = molecular target: T35, ERBB2 (Homo sapiens, UniProt P04626); settings: read-out: % Cont @ 1 uM
T35 construct: purchased DiscoverX scanMAX Kinase panel
T35 sequence (P04626 23-1255): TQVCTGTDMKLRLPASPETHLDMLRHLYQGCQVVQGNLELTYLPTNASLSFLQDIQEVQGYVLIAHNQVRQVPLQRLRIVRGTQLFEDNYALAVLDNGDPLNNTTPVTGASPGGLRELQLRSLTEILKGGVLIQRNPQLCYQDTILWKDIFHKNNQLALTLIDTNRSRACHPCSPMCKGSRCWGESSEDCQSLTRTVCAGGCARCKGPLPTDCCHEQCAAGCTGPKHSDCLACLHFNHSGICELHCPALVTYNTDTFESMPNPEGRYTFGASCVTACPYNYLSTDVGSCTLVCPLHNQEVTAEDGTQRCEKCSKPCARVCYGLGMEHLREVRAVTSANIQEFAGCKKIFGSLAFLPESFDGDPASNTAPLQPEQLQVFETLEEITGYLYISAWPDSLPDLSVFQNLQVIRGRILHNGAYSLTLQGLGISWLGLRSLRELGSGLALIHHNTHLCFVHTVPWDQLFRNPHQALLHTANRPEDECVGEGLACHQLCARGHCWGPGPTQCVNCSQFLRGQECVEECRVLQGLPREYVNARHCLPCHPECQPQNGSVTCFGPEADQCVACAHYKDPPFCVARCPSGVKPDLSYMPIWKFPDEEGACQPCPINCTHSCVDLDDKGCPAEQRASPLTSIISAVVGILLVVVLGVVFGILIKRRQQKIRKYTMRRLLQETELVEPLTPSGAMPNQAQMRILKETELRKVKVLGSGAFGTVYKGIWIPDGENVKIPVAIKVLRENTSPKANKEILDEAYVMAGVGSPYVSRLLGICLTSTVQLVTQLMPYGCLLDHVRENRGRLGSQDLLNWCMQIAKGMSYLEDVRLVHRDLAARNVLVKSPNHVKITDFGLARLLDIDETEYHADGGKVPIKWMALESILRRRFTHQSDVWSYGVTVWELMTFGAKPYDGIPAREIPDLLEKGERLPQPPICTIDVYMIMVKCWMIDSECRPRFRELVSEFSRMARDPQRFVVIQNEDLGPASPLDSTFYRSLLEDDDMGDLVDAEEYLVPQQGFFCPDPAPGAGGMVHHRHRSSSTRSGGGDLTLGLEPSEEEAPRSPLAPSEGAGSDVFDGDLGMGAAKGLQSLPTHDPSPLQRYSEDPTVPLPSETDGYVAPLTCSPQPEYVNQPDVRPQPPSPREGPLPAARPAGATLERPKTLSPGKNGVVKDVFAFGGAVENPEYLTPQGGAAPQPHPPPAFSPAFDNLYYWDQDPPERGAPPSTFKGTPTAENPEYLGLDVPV
Experimental: as §1

EGFR(G719S) = molecular target: T36, EGFR(G719S) (Homo sapiens, UniProt P00533, G719S)
T36 construct: purchased DiscoverX scanMAX Kinase panel
Experimental: as §1

EGFR = molecular target: T37, EGFR (Homo sapiens, UniProt P00533)
T37 construct: purchased DiscoverX scanMAX Kinase panel
Experimental: as §1

p38-gamma = molecular target: T38, p38-gamma (Homo sapiens, UniProt P53778); settings: read-out: % Cont @ 1 uM
T38 construct: purchased DiscoverX scanMAX Kinase panel
Experimental: as §1

RET(V804L) = molecular target: T39, RET(V804L) (Homo sapiens, UniProt P07949, V804L); settings: read-out: % Cont @ 1 uM
T39 construct: purchased DiscoverX scanMAX Kinase panel
T39 sequence (P07949 29-1114 V804L): as the sequence (P07949 29-1114 M918T) above, with V776L, T890M counted along it
Experimental: as §1

Cc1cn(-c2cc(NC(=O)c3cc(C#Cc4cnc5c(Nc6cnn(C)c6)cccn45)c(C)cc3F)cc(C(C)(C)C#N)c2)cn1 [Example 1, N-(3-(2-cyanopropane-2-yl)-5-(4-methyl-1H-imidazol-1-yl)phenyl)-2-fluoro-4-methyl-5-((8-((1-methyl-1H-pyrazol-4-yl)amino)imidazo[1,2-a]pyridin-3-yl)ethynyl)benzamide]
remaining binding at 1 µM [1]: 15%
% Cont @ 1 uM (FLT3(ITD)): 1.1%
remaining binding at 1 µM (BRAF): 13%
remaining binding at 1 µM (TEC): 1.3%
remaining binding at 1 µM (FES): 1.6%
remaining binding at 1 µM (TRKC): 0.05%
remaining binding at 1 µM (FGR): 3.5%
percent of control binding at 1 µM (PDGFRA): 2%
remaining binding at 1 µM (FLT3(D835V)): 0.25%
% Cont @ 1 uM (MST3): 20%
% Cont @ 1 uM (EGFR(L861Q)): 6.7%
remaining binding at 1 µM (NEK1): 34%
remaining binding at 1 µM (VEGFR2): 6.1%
remaining binding at 1 µM (CDC2L2): 24%
remaining binding at 1 µM (TAK1): 4.3%
remaining binding at 1 µM (ABL1-nonphosphorylated): 1.9%
remaining binding at 1 µM (FER): 10%
% Cont @ 1 uM (MLK3): 10%
remaining binding at 1 µM [2]: 1.3%
remaining binding at 1 µM (ABL1-phosphorylated): 0.45%
remaining binding at 1 µM (TAOK2): 20%
remaining binding at 1 µM (STK36): 20%
remaining binding at 1 µM (PAK3): 7.1%
remaining binding at 1 µM (YES): 2.5%
remaining binding at 1 µM (RET(M918T)): 0%
remaining binding at 1 µM (MAP3K3): 19%
remaining binding at 1 µM (IKK-alpha): 31%
remaining binding at 1 µM (TIE2): 0.4%
remaining binding at 1 µM (TNIK): 7.2%
remaining binding at 1 µM (BLK): 0.05%
remaining binding at 1 µM (MAP3K2): 34%
remaining binding at 1 µM (EPHB1): 17%
remaining binding at 1 µM (FGFR4): 2.8%
remaining binding at 1 µM (MERTK): 6.1%
% Cont @ 1 uM (DLK): 5.9%
remaining binding at 1 µM (ERBB2): 34%
% Cont @ 1 uM (EGFR(G719S)): 16%
% Cont @ 1 uM (EGFR): 29%
remaining binding at 1 µM (p38-gamma): 17%
remaining binding at 1 µM (RET(V804L)): 0.6%

Cc1cn(-c2cc(NC(=O)c3cc(C#Cc4cnc5c(Nc6cnn(C)c6)cccn45)c(C)cc3F)cc(C(F)(F)F)c2)cn1 [Example 4, 2-fluoro-4-methyl-N-(3-(4-methyl-1H-imidazol-1-yl)-5-(trifluoromethyl)phenyl)-5-((8-((1-methyl-1H-pyrazol-4-yl)amino)imidazo[1,2-a]pyridin-3-yl)ethynyl)benzamide]
remaining binding at 1 µM [1]: 4.1%
% Cont @ 1 uM (FLT3(ITD)): 6.6%
remaining binding at 1 µM (BRAF): 34%
remaining binding at 1 µM (TEC): 46%
remaining binding at 1 µM (FES): 55%
remaining binding at 1 µM (TRKC): 1.4%
remaining binding at 1 µM (FGR): 12%
percent of control binding at 1 µM (PDGFRA): 11%
remaining binding at 1 µM (FLT3(D835V)): 25%
% Cont @ 1 uM (MST3): 70%
% Cont @ 1 uM (EGFR(L861Q)): 53%
remaining binding at 1 µM (NEK1): 100%
remaining binding at 1 µM (VEGFR2): 36%
remaining binding at 1 µM (CDC2L2): 83%
remaining binding at 1 µM (TAK1): 50%
remaining binding at 1 µM (ABL1-nonphosphorylated): 5.6%
remaining binding at 1 µM (FER): 71%
% Cont @ 1 uM (MLK3): 57%
remaining binding at 1 µM [2]: 14%
remaining binding at 1 µM (ABL1-phosphorylated): 8.4%
remaining binding at 1 µM (TAOK2): 35%
remaining binding at 1 µM (STK36): 45%
remaining binding at 1 µM (PAK3): 10%
remaining binding at 1 µM (YES): 10%
remaining binding at 1 µM (RET(M918T)): 0.95%
remaining binding at 1 µM (MAP3K3): 82%
remaining binding at 1 µM (IKK-alpha): 35%
remaining binding at 1 µM (TIE2): 0.7%
remaining binding at 1 µM (TNIK): 25%
remaining binding at 1 µM (BLK): 0.4%
remaining binding at 1 µM (MAP3K2): 87%
remaining binding at 1 µM (EPHB1): 26%
remaining binding at 1 µM (FGFR4): 53%
remaining binding at 1 µM (MERTK): 3.3%
% Cont @ 1 uM (DLK): 89%
remaining binding at 1 µM (ERBB2): 65%
% Cont @ 1 uM (EGFR(G719S)): 65%
% Cont @ 1 uM (EGFR): 79%
remaining binding at 1 µM (p38-gamma): 88%
remaining binding at 1 µM (RET(V804L)): 6%
